# Measured values published in patent US20150148551A1, “GENISTEIN FOR REDUCING LEVELS OF STORAGE COMPOUNDS IN THE TREATMENT AND/OR PREVENTION OF LYSOSOMAL STORAGE DISEASES (LSDS)” (3G THERAPEUTICS, INC., priority 2012, published 2015).
# Legend:
# Type in all cases: cell-based, human
# ST3GAL2 = assay: DNA microarray, ST3GAL2 expression in fibroblasts exposed to genistein
# Procedure: (§1) The experiments were conducted to characterise the transcriptomic profile of human fibroblast cells exposed to genistein, and in particular to determine the expression of genes encoding lysosomal enzymes involved in metabolism (i.e. synthesis and degradation) of organic substances. The absence or deficiency of these enzymes' activity is responsible for occurrence of various lysosomal storage diseases (LSD) (including MPS). The tested hypothesis assumed that genistein influences the expression of many genes, among which there are genes coding for enzymes required in metabolism of compounds, which are pathologically stored in LSD. The results provide important information regarding genistein action on the molecular level within the range of gene expression modulation by this substance. The experiment was conducted in biological quintuplicates. Human dermal fibroblasts (HDFa) were exposed in vitro for 1, 24 or 48 hours to: 30, 60 or 100 μM of genistein; 0.05% DMSO (K1); or were untreated (control cells) (K2), and total RNA was isolated and analysed.
# (§2) Fibroblast cells were grown in Dulbecco (DMEM) medium supplemented with 10% fetal bovine serum (FBS) with the addition of 1% antibiotics and anti-fungal agents at 37° C. in humidified atmosphere of 5% CO2, until the required confluency was obtained.
# (§3) To determine the effect of tested compound on the transcriptom of the fibroblast cells, the growth medium was replaced with fresh medium, either non-supplemented (0.05% DMSO), or containing genistein (30, 60 or 100 μM, in 0.05% DMSO). The exposure was done for 1, 24 or 48 hours.
# (§4) Total RNA was isolated from fibroblasts using High Pure RNA Isolation Kit according to the protocol and then it was quantitatively evaluated using Quant-It™ RiboGreen® Assay Kit.
# (§5) Biotinylated cRNA was prepared using Ambion Total PrepAmp Kit for Illumina arrays.
# (§6) Standard hybridization and quantitative image analysis procedures—Illumina hybridization protocol and Illumina scanning protocol, were used.
# (§7) Processing of the results was done during data definition, including: background correction (using background subtraction method), normalization (using quantile normalization algorithm with Illumina GenomeStudio software package: gene expression module version 1.9.0) and summarization (using method, which sums the values of signal intensities from a set of probes).
# TBP = assay: DNA microarray, TBP reference gene expression in fibroblasts exposed to genistein
# Procedure: as §1, §2, §3, §4, §5, §6, §7
# CTSK = assay: DNA microarray, CTSK expression in fibroblasts exposed to genistein; settings: for CTSK fold change Average: 48 h vs DMSO
# Procedure: as §1, §2, §3, §4, §5, §6, §7
smiles,measurement,setting,value
"O=c1c(-c2ccc(O)cc2)coc2cc(O)cc(O)c12 [genistein, 4′,5,7-trihydroxy-3-phenylchromen-4-one]",ST3GAL2 fold change Average 1h30/1hK1,"ST3GAL2; 30 μM, 1 h vs 0.05% DMSO",1.155 fold change
same,ST3GAL2 fold change Average 24h30/24hK1,"ST3GAL2; 30 μM, 24 h vs 0.05% DMSO",0.7505 fold change
same,ST3GAL2 fold change Average 48h30/48hK1,"ST3GAL2; 30 μM, 48 h vs 0.05% DMSO",0.797 fold change
same,ST3GAL2 fold change Average 1h60/1hK1,"ST3GAL2; 60 μM, 1 h vs 0.05% DMSO",1.467 fold change
same,ST3GAL2 fold change Average 24h60/24hK1,"ST3GAL2; 60 μM, 24 h vs 0.05% DMSO",0.5068 fold change
same,ST3GAL2 fold change Average 1h100/1hK1,"ST3GAL2; 100 μM, 1 h vs 0.05% DMSO",1.338 fold change
same,ST3GAL2 fold change Average 24h100/24hK1,"ST3GAL2; 100 μM, 24 h vs 0.05% DMSO",0.6299 fold change
same,ST3GAL2 fold change Average 48h100/48hK1,"ST3GAL2; 100 μM, 48 h vs 0.05% DMSO",0.7215 fold change
same,TBP fold change Average 1h30/1hK1,"TBP; 30 μM, 1 h vs 0.05% DMSO",0.974 fold change
same,TBP fold change Average 24h30/24hK1,"TBP; 30 μM, 24 h vs 0.05% DMSO",0.8816 fold change
same,TBP fold change Average 48h30/48hK1,"TBP; 30 μM, 48 h vs 0.05% DMSO",0.9265 fold change
same,TBP fold change Average 1h60/1hK1,"TBP; 60 μM, 1 h vs 0.05% DMSO",0.9183 fold change
same,TBP fold change Average 24h60/24hK1,"TBP; 60 μM, 24 h vs 0.05% DMSO",0.7892 fold change
same,TBP fold change Average 48h60/48hK1,"TBP; 60 μM, 48 h vs 0.05% DMSO",0.9926 fold change
same,TBP fold change Average 1h100/1hK1,"TBP; 100 μM, 1 h vs 0.05% DMSO",0.9531 fold change
same,TBP fold change Average 24h100/24hK1,"TBP; 100 μM, 24 h vs 0.05% DMSO",0.8303 fold change
same,TBP fold change Average 48h100/48hK1,"TBP; 100 μM, 48 h vs 0.05% DMSO",0.8862 fold change
same,CTSK fold change Average 1h30/1hK1,"CTSK; 30 μM, 1 h vs 0.05% DMSO",0.9778 fold change
same,CTSK fold change Average,CTSK; 30 μM,1.2621 fold change
same,CTSK fold change Average 1h60/1hK1,"CTSK; 60 μM, 1 h vs 0.05% DMSO",1.108 fold change
same,CTSK fold change Average,CTSK; 60 μM,1.387 fold change
same,CTSK fold change Average 1h100/1hK1,"CTSK; 100 μM, 1 h vs 0.05% DMSO",0.9868 fold change
same,CTSK fold change Average,CTSK; 100 μM,1.541 fold change
